These results are taken from patent EP4635500A1, “THERAPEUTIC AGENT FOR BACTERIAL INFECTION” (Sumitomo Pharma Co., Ltd., priority 2022, dated 2024).

Values after ≈ are worked out from the molar mass of the structure shown. Read-outs that look alike come from different tables or passages of the source. Where only a bound is given, the exact number is not on record here.

Common to all, as to format: cell-based
One assay has as its system Enterobacter cloacae. In words: MIC, broth microdilution, standard strains and Japanese clinical isolates (Example 5, Table 4). (In general: In broth dilution the organism is exposed to a series of concentrations in liquid medium.)
For a further assay, the system named is Enterobacter hormaechei. The assay is described as above. To be noted: ATCCBAA2082; KUB4001 Enterobacter hormaechei ATCC BAA-2082, KPC-2.
In another assay the test system is 53 CRE and CPE strains. In words: MICrange, MIC50, MIC80, MIC90 for 53 bacterial isolates (Example 5, Table 5). As to conditions: 53 bacterial isolates.
The subject of a further assay is Klebsiella pneumoniae. In words: MIC, broth microdilution, standard strains and Japanese clinical isolates (Example 5, Table 4).
A further assay relates to CRE and CPE strains. Put plainly: MIC, broth microdilution, standard strains and Japanese clinical isolates (Example 5, Table 4 continued; organism of each KUB strain not given).
The test system of the next assay is Providencia rettgeri. Put plainly: MIC, broth microdilution, standard strains and Japanese clinical isolates (Example 5, Table 4). As to conditions: ATCCBAA2525; KUB4010 Providencia rettgeri ATCC BAA-2525, OXA-181.
Another assay deals with Escherichia coli. Described as above.
The subject of the next assay is A. baumannii. Put plainly: MIC, broth microdilution, 6 strains (Example 6, Table 7).
The test system of a further assay is P. aeruginosa. In words: MIC, broth microdilution, CDC/FDA Antibiotic Resistance Isolate Bank (Example 7, Tables 10, 15).

Take `C[C@@H](O)[C@H]1C(=O)N2C(C(=O)O)=C(SCCN=CN)C[C@H]12` [Imipenem, imipenem]: the MIC against Enterobacter cloacae (ATCCBAA2341, KUB4002 Enterobacter cloacae ATCC BAA-2341, KPC-3) is 16 µg/mL (≈ 53.4 µM); with Enterobacter cloacae (ATCCBAA2468, KUB4006 Enterobacter cloacae ATCC BAA-2468, NDM-1), above 32 µg/mL; in the assay with Enterobacter hormaechei, 32 µg/mL (≈ 107 µM); against Klebsiella pneumoniae (ATCCBAA1898, KUB3996 Klebsiella pneumoniae ATCC BAA-1898, KPC-2) it was 32 µg/mL (≈ 107 µM); in the assay on Klebsiella pneumoniae (ATCCBAA1899, KUB3997 Klebsiella pneumoniae ATCC BAA-1899, KPC-2), 8 µg/mL (≈ 26.7 µM); against Klebsiella pneumoniae (ATCCBAA1900, KUB3998 Klebsiella pneumoniae ATCC BAA-1900, KPC-3), 32 µg/mL (≈ 107 µM). Moreover, the MIC with Klebsiella pneumoniae (ATCCBAA1904, KUB3999 Klebsiella pneumoniae ATCC BAA-1904, KPC-3) is 4 µg/mL (≈ 13.4 µM); against Klebsiella pneumoniae (ATCCBAA2078, KUB4000 Klebsiella pneumoniae ATCC BAA-2078, KPC-3), 8 µg/mL (≈ 26.7 µM); against Klebsiella pneumoniae (ATCCBAA2146, KUB4011 Klebsiella pneumoniae ATCC BAA-2146, NDM-1), above 32 µg/mL; against Klebsiella pneumoniae (ATCCBAA2342, KUB4003 Klebsiella pneumoniae ATCC BAA-2342, KPC-3), 8 µg/mL (≈ 26.7 µM); with Klebsiella pneumoniae (ATCCBAA2343, KUB4004 Klebsiella pneumoniae ATCC BAA-2343, KPC-3) it was 16 µg/mL (≈ 53.4 µM); with Klebsiella pneumoniae (ATCCBAA2472, KUB4008 Klebsiella pneumoniae subsp. Pneumoniae ATCC BAA-2472, NDM-1) it was 32 µg/mL (≈ 107 µM). For the same compound, the MIC in the assay with Klebsiella pneumoniae (ATCCBAA2473, KUB4009 Klebsiella pneumoniae ATCC BAA-2473, NDM-1) was 32 µg/mL (≈ 107 µM); against Klebsiella pneumoniae (KUB3631 Klebsiella pneumoniae Clinical isolate, IMP-1), 1 µg/mL (≈ 3.34 µM); against Klebsiella pneumoniae (KUB3633 Klebsiella pneumoniae Clinical isolate, IMP-6), 0.12 µg/mL (≈ 0.401 µM); with Klebsiella pneumoniae (KUB3634 Klebsiella pneumoniae Clinical isolate, IMP-6) it was 0.12 µg/mL (≈ 0.401 µM); in the assay with Klebsiella pneumoniae (KUB3635 Klebsiella pneumoniae Clinical isolate, IMP-1) it was above 32 µg/mL; in the assay with CRE and CPE strains (strain KUB3148, carbapenemase gene KPC-3, read-out: MIC) it was 1 µg/mL (≈ 3.34 µM). The minimum inhibitory concentration (MIC) was found to be 4 µg/mL (≈ 13.4 µM) in the assay with CRE and CPE strains (strain KUB3149, carbapenemase gene NDM-1, read-out: MIC); 0.5 µg/mL (≈ 1.67 µM) with CRE and CPE strains (strain KUB3150, carbapenemase gene OXA-48, read-out: MIC); 0.5 µg/mL (≈ 1.67 µM) in the assay with CRE and CPE strains (strain KUB3151, carbapenemase gene IMP-1, read-out: MIC); 8 µg/mL (≈ 26.7 µM) in the assay on CRE and CPE strains (strain KUB3152, carbapenemase gene KPC-2, read-out: MIC); 16 µg/mL (≈ 53.4 µM) in the assay on CRE and CPE strains (strain KUB3153, carbapenemase gene KPC-3, read-out: MIC); 1 µg/mL (≈ 3.34 µM) with CRE and CPE strains (strain KUB3154, carbapenemase gene KPC-2, read-out: MIC). Further, the MIC with CRE and CPE strains (strain KUB3163, carbapenemase gene IMP-1) was 2 µg/mL (≈ 6.68 µM); in the assay with CRE and CPE strains (strain KUB3606, carbapenemase gene KPC-38), above 32 µg/mL; in the assay with CRE and CPE strains (strain KUB3620, carbapenemase gene -), 32 µg/mL (≈ 107 µM); in the assay on CRE and CPE strains (strain KUB3628, carbapenemase gene IMP-1) it was 32 µg/mL (≈ 107 µM); against CRE and CPE strains (strain KUB3629, carbapenemase gene IMP-1), 8 µg/mL (≈ 26.7 µM); against Providencia rettgeri, 4 µg/mL (≈ 13.4 µM). Moreover, the MIC stood at 4 µg/mL (≈ 13.4 µM) with Escherichia coli (ATCCBAA2452, KUB4005 Escherichia coli ATCC BAA-2452, NDM-1) and 32 µg/mL (≈ 107 µM) in the assay with Escherichia coli (ATCCBAA2471, KUB4007 Escherichia coli ATCC BAA-2471, NDM-6). Also, the MIC50 in the assay on 53 CRE and CPE strains (read-out: MIC50) worked out at 4 µg/mL (≈ 13.4 µM). The MIC80 with 53 CRE and CPE strains (read-out: MIC80) came to 32 µg/mL (≈ 107 µM). Besides, the MIC90 with 53 CRE and CPE strains (read-out: MIC90) stood at 32 µg/mL (≈ 107 µM).
Take Colistin sulfate: the minimal inhibitory concentration (MIC) turned out to be 1 µg/mL against A. baumannii (A. baumannii strain with AMR gene ADC-25, OXA-23, OXA-66, TEM-ID, Carbapenem-resistant); 2 µg/mL with A. baumannii (A. baumannii strain with AMR gene ADC-25, OXA-66, TEM-1D, Carbapenem-susceptible); 1 µg/mL against A. baumannii (A. baumannii strain with AMR gene ADC-25, XA-23, OXA-66, strA, strB, sul2, TEM-1D, Carbapenem-resistant); 1 µg/mL against A. baumannii (A. baumannii strain with AMR gene NDM-1, OXA-64, Carbapenem-resistant); 1 µg/mL against A. baumannii (A. baumannii strain with AMR gene OXA-23, OXA-69, TEM-1D, Carbapenem-resistant); 1 µg/mL against A. baumannii (A. baumannii strain with AMR gene OXA-24, OXA-65, Carbapenem-resistant).
In the case of `O=C(O)c1cn(C2CC2)c2cc(N3CCNCC3)c(F)cc2c1=O` [Ciyprofloxacin], the MIC came out at 8 µg/mL (≈ 24.1 µM) against P. aeruginosa (P. aeruginosa KUB No. 5681, AR Bank # 248); 4 µg/mL (≈ 12.1 µM) in the assay with P. aeruginosa (P. aeruginosa KUB No. 5684, AR Bank # 251); 8 µg/mL (≈ 24.1 µM) with P. aeruginosa (P. aeruginosa KUB No. 5685, AR Bank # 252); 2 µg/mL (≈ 6.04 µM) in the assay with P. aeruginosa (P. aeruginosa KUB No. 5694, AR Bank # 261); 0.5 µg/mL (≈ 1.51 µM) against P. aeruginosa (P. aeruginosa KUB No. 5695, AR Bank # 262); 1 µg/mL (≈ 3.02 µM) in the assay with P. aeruginosa (P. aeruginosa KUB No. 5696, AR Bank # 263). In addition, the MIC against P. aeruginosa (P. aeruginosa KUB No. 5700, AR Bank # 267) is reported as 8 µg/mL (≈ 24.1 µM); with P. aeruginosa (P. aeruginosa KUB No. 5701, AR Bank # 268), 4 µg/mL (≈ 12.1 µM); against P. aeruginosa (P. aeruginosa KUB No. 5703, AR Bank # 270) it was 8 µg/mL (≈ 24.1 µM).

By MIC is commonly meant the lowest concentration that inhibits growth of the organism. As a reminder, the MIC50 is the lowest concentration that inhibits either 50% of growth or 50% of the strains tested, depending on the study. As a reminder, the MIC80 is an inhibitory concentration at the 80% level, which refers to growth in some studies and to a panel of isolates in others. As a reminder, the MIC90 is the lowest concentration that inhibits either 90% of growth or 90% of the strains tested, depending on the study.
